This is an account of results in patent US20060030711A1 (priority 2004, published 2006).

Like-named read-outs stand apart in the source and are kept apart here.

A short description of series [1]: thermodynamic stability of polymorphs (DSC comparison). The format is physicochemical. Here is the method:
Pipindoxifene hydrochloride monohydrate can also exist as form I polymorph. Sample data for certain physical properties are compared for form I and form II polymorphs below in Table 2.
DSC measurements were carried out in both sealed pan and vented pan at a scan rate of 10° C./min from 25° C. to 200° C. under nitrogen purge using a Pyris I DSC from Perkin-Elmer.

The subject of series [2] is tamoxifen-sensitive cells lines. Conditions: other studies; cited from earlier work.
The test system of the next series is uterus. Conditions: tissue selective estrogenic effects; cited from earlier work.
In series [3] the test system is tamoxifen-resistent MCF-7 breast cancer xenografts. The conditions noted are these: recent preclinical studies; cited from earlier work.

Consider `Cc1c(-c2ccc(O)cc2)n(Cc2ccc(OCCN3CCCCC3)cc2)c2ccc(O)cc12.Cl` [form II, pipindoxifene hydrochloride monohydrate], for which the “thermodynamic stability of crystalline polymorph” value in series [1] is “Less thermodynamically stable”.

On to `Cc1c(-c2ccc(O)cc2)n(Cc2ccc(OCCN3CCCCC3)cc2)c2ccc(O)cc12.Cl` [Form I, pipindoxifene hydrochloride monohydrate], for which the “thermodynamic stability of crystalline polymorph” value in series [1] (form I versus form II, from Table 2 DSC data, hydrochloride monohydrate) is on record as “thermodynamically more stable than form II”.

Take `Cc1c(-c2ccc(O)cc2)n(Cc2ccc(OCCN3CCCCC3)cc2)c2ccc(O)cc12.Cl` [pipindoxifene, 2-(4-hydroxyphenyl)-3-methyl-1-[4-(2-piperidin-1-ylethoxy)-benzyl]-1H-indol-5-ol hydrochloride]: the “effectiveness in tamoxifen-sensitive cell lines” value in series [2] is reported as “effectiveness”. In addition, the uterotropic activity entry with uterus is “little or no uterotropic activity”. Moreover, the “growth of tamoxifen-resistant MCF-7 breast cancer xenografts” value in series [3] is “inhibited the growth”.
